Measurements taken from US10889553B2, “Asymmetric triazole benzamide derivatives and the compositions and methods of treatment regarding the same” (NysnoBio Ireland DAC, priority 2017, dated 2021).
Values joined by “and” are separate entries in the source; they are usually repeats but may differ in a detail not shown here. Identical values can stand only once.

How the values were obtained:
[1] = Microsomal stability assay, rat liver microsomes; type: in vitro ADME; conditions: pH 7.4; rat liver microsomes 1.0 mg/mL, 1 μM compound, NADPH; read-out: RLM t1/2
Protocol: Compounds were also tested for metabolic stability in both rat liver microsomes (RLM) and the compounds are tested for human liver microsomes (HLM) and their half-life is calculated (See Tables 5A and 5B). The assay was performed as follows. The total volume for each incubation was 250 μL. A 100 μM DMSO solution of compound (diluted from 10 mM stock solution) was spiked into 50 mM KH2PO4 (pH 7.4) buffer containing liver microsome at a concentration of 1.0 mg/mL. The reaction was initiated by the addition of 50 μL of 1 mM NADPH. The final concentration of each compound was 1 μM (1% DMSO). The positive controls, phenacetin for CYP1A2, diclofenac for CYP2C9, omeprazole for CYP2C19, dextromethorphan for CYP2D6 and midazolam for CYP3A4 were added to a separate tube with the final substrate concentrations of 1 μM (1% DMSO) for evaluating the enzyme activities in the liver microsomes. At 0, 15, 30 and 60 min, an aliquot of 15 μL reaction mixtures were removed and 200 μL of methanol (with internal standard of 25 ng/mL propranolol) was added to quench the reaction. The resulting mixture was centrifuged and supernatant was used for LC-MS/MS analysis.
The signals for each compound, or the metabolites for the probe substrates and the internal standard were integrated and the peak area ratios to internal standard were generated. Percent parent remaining at a specified timepoint was calculated based on the peak area ratios at time 0 (as 100%) for in vitro metabolic stability studies in liver microsome and hepatocyte. The observed rate constant (kobs) for the metabolism of substrates was calculated by plotting the natural log of percentage substrate remaining versus time of incubation with the slope being kobs. The half-life (T1/2) was calculated according to the following equation: T1/2=[…]

Parkin ligase = target: T1, Parkin ligase (Homo sapiens, UniProt O60260); experiment: Activity-Based Probe Assay using Ubiquitin vinyl sulfone probe (TR-FRET); type: biochemical; conditions: heat activated Parkin, HA-Ub-VS probe, activation EC50; read-out: Probe Assay EC50 (μM) [Example 2]
T1 sequence (O60260 1-465): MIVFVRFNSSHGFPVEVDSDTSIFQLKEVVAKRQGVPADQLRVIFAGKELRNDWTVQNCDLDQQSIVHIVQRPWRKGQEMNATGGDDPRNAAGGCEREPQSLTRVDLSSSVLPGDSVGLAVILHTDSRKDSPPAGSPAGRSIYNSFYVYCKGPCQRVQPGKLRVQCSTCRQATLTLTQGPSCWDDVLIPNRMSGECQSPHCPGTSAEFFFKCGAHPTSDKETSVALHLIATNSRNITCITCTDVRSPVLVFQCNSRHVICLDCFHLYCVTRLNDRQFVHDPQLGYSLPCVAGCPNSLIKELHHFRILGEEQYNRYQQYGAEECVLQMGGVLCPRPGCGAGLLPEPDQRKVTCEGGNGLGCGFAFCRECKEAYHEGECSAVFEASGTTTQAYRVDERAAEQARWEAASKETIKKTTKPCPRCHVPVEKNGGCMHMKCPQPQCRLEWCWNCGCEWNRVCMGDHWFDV
Protocol: An Ubiquitin vinyl sulfone probe can be used that irreversibly binds to the active site cysteine of Parkin ligase. Covalent attachment of the probe to the Parkin can be monitored by TR-FRET. Candidate activator compounds can be identified by increasing the activity of Parkin ligase due to an increase in TR-FRET signal. Screening for activating compounds can be distinguished from the controls as follows: 100% activation signal=Heat activated Parkin+100 nM control activator in DMSO. 0% activation signal=Heat activated Parkin+DMSO only. Parkin activators can be identified by an increase of the 0% activation signal TR-FRET signal. Assay Conditions: Materials: • Assay Plate: White 384 well plate (Corning 3572) • Enzyme: Parkin-His tagged 203 μM (10.5 mg/ml) • Probe: Ubiquitin vinyl-sulfone (HA-Ub-VS Boston Biochem U-212) • DMSO: DMSO (Sigma cat #D4540-100ML) • Reaction Buffer: 50 mM HEPES (pH 8.5), 150 mM NaCl, 0.01% Tween 20, 0.1% BSA • Detection Buffer: 50 mM HEPES (pH 8.5), 150 mM NaCl, 0.01% Tween 20, 0.1% BSA, 800 mM KF • Detection Reagent A: 2.6 nM Anti-6HIS-Eu cryptate and 40 nM Anti-HA-XL665 in detection buffer • Eu cryptate: Anti-6HIS-Eu cryptate (CisBio 61HISKLA) • XL665: Anti-HA-XL665 (CisBio 610HAXLA) Enzyme Reaction (15 Min Pre Incubation Parkin with Activator Only) • Parkin: 40 nM • HA-Ub-VS Probe: 70 nM • Activator/DMSO: 2× Activator/2% DMSO Reaction time: 60 minutes Temperature: 22° C. Total volume: 10 μl reaction Detection Reaction Take […] of Enzyme Reaction above and add 10 μl detection Reagent A under the following conditions: • Reaction time: 60 minutes • Temperature: 22° C. • Total volume: 20 μl
Assay procedure (Using HP D-300 compound dispenser and Bravo for the operation):
1) Heat activate Parkin in reaction buffer (500 μl/1.5 ml tube: Eppendorf Thermomixer 5 minutes, 400 rpm at 58° C. and put on ice until needed).
2) Load assay plate wells with 4.8 μl 84.5 nM Parkin in reaction buffer by use of Bravo.
3) Deliver 0.2 μl 200× activator candidates in DMSO by use of HP D-300 compound dispenser. Highest 200× concentration=[…] and then twofold dilutions.
4) Spin 1000 rpm, 2 minutes, at room temp.
5) Incubate plate for 15 minutes at room temp.
6) Add 5 μl 140 nM HA-Ub-VS Probe in reaction buffer by use of Bravo.
7) Spin 1000 rpm, 2 minutes, at room temp.
8) Incubate plate for 60 minutes at room temp.
9) Add 10 μl 2.6 nM Anti-6HIS-Eu cryptate and 40 nM […] in detection buffer.
10) Spin 1000 rpm, 2 minutes, at room temp.
11) Incubate plate for 60 minutes at room temp.
12) Read plates on Perkin Elmer Envision instrument with the following parameters:
LANCE dual laser protocol loaded into the Envision® software
Top Mirror: LANCE/DELFIA Duel/Bias (Bar code 446)
Emission Filter: APC 665 EM (Bar code 205)
2nd Emission Filter: Europium 615 EM (Bar code 203)
Read 655 nm (channel 1) and 615 nm (channel 2) wavelengths on Envision®
Data Analysis: The Data can be read in CSV files. There are two tables in those CSV files, which are the values of 655 nm (channel 1) and 615 nm (channel 2) wavelengths respectively. The data is converted to an HTRF Ratio=(Channel 1/Channel 2)*10,000
The average of all the 0 μM controls (DMSO only)=BKGD (Background—0% activation). Subtract BKGD from each HTRF Ratio value=HTRF−BKGD. The average of all the […] 100 nM control activator in DMSO controls=Max (100% activation). The following equation is then used to calculate % Activation for each well/candidate as follows: % Activation=(HTRF−BKGD/Max)*100.
Graphpad Prism was used with Transform X values: X=Log(X) and nonlinear regression (dose-response-stimulation): Log(agonist) vs Response−variable slope (four parameters) with constrains set to Bottom=0 and Top=100.
The Activity-Based Probe Assay was performed with various compounds in Tables 1, 2, 3A and 3B.

TOV-21G (ovarian) = experiment: Cancer cell proliferation assay (acid phosphatase); type: cell-based; conditions: Homo sapiens, TOV21G, 72 h, Table 6A; 72 hrs; read-out: TOV-21G IC50
Protocol: (§1) Measurement of the inhibitive effect of compounds on cancer cell proliferation was performed. Various cell lines were tested, including HCT-116 (colon); A549 (lung); TOV-21G (ovarian); Calu-6 (lung); and LS-174T (colon); and cell lines H1703 (Lung) and SKOV3 (ovarian); JEKO-1 (lymophoma); TOV-112D (ovarian) are tested. The assays were performed under the following conditions: Cells are harvested at a concentration of 4×10^4 cells/ml in media. Volumes of 100 μl/well of these cell suspensions were added to a 96 well plate using a multichannel pipette. Plates were gently agitated to ensure an even dispersion of cells over a given plate. Cells were then incubated at 37° C., 5% CO2 overnight. Following this, 100 μl of compound at varying concentrations was added to wells in triplicate. Control wells are those with 100 μl media containing 0.33% DMSO added to cell suspension (this is the equivalent volume of DMSO found in the highest concentration of drug). Plates were then gently agitated, as above, and incubated at 37° C., 5% CO2 for 72 hrs (control wells have reached 80-90% confluency). Assessment of cell proliferation in the presence of the compound was determined by the acid phosphatase assay.
(§2) Following the incubation period of 72 hrs, media was removed from the plates. Each well on the plate was washed twice with 100 μl PBS. This was then removed and 100 μl of freshly prepared phosphatase substrate (10 mM p-nitrophenol phosphate in 0.1M sodium acetate, 0.1% triton X-100, pH 5.5) was added to each well. The plates were then incubated in the dark at 37° C. for 2 hours. Colour development was monitored during this time. The enzymatic reaction was stopped by the addition of 50 μl of 1N NaOH. The plate was read in a dual beam plate reader at 405 nm with a reference wavelength of 620 nm. The absorbance reading of the latter is subtracted from the former, and the effect of the drug on cell proliferation was then measured as a percentage against the control cells (DMSO), which is taken as 0% inhibition.

A549 (lung) = experiment: Cancer cell proliferation assay (acid phosphatase); type: cell-based; conditions: Homo sapiens, A549, 72 h, Table 6A; 72 hrs; read-out: A549 IC50
Protocol: as §1, §2

HCT-116 (colon) = experiment: Cancer cell proliferation assay (acid phosphatase); type: cell-based; conditions: Homo sapiens, HCT-116, 72 h, Table 6A; 72 hrs; read-out: HCT-116 IC50
Protocol: as §1, §2

Compound | half-life at 1 μM [1] [h] | EC50 (Parkin ligase) | IC50 (TOV-21G (ovarian)) [µM] | IC50 (A549 (lung)) [µM] | IC50 (HCT-116 (colon)) [µM]
Cc1ccccc1C(=O)Nc1nc(NC(=O)C2CCN2)nn1-c1ccccc1 (stereo not drawn) [Compound 5] | 2.18 | 3 µM |  |  | 
C#Cc1ccccc1C(=O)Nc1nc(NC(=O)c2cccc(N=[N+]=[N-])c2)n(-c2ccccc2)n1 [Compound 8] | 1.18 | 4 µM |  |  | 
Cc1ccccc1C(=O)Nc1nc(NC(=O)c2cocn2)n(-c2ccccc2)n1 [Compound 9] | 0.967 | 32 µM |  |  | 
Cc1ccccc1C(=O)Nc1nc(NC(=O)c2ncco2)n(-c2ccccc2)n1 [Compound 10] | 0.45 | 30 µM |  |  | 
C#Cc1cccc(C(=O)Nc2nc(NC(=O)c3cccc(N=[N+]=[N-])c3)n(-c3ccccc3)n2)c1 [Compound 11] | 2.45 | 2 µM |  |  | 
C#Cc1cccc(C(=O)Nc2nc(NC(=O)c3ccc(N=[N+]=[N-])cc3)nn2-c2ccccc2)c1 [Compound 12] | 2.1 | 1 µM and 3 µM |  |  | 
Cc1ccccc1C(=O)Nc1nc(NC(=O)c2cccnn2)n(-c2ccccc2)n1 [Compound 13] | 0.85 | 7 µM |  |  | 
C#Cc1cccc(C(=O)Nc2nc(NC(=O)c3ccc(N=[N+]=[N-])cc3)n(-c3ccccc3)n2)c1 [Compound 18] | 1.72 | 1 µM and 3 µM |  |  | 
COc1cccc(C(=O)Nc2nc(NC(=O)c3cccc(OC)c3)n(-c3ccccc3)n2)c1 [Compound 27] | 0.317 | 3 µM |  |  | 
Cc1ccccc1C(=O)Nc1nc(NC(=O)c2ncccn2)n(-c2ccccc2)n1 [Compound 28] | 0.333 | 22 µM |  |  | 
C#Cc1cccc(C(=O)Nc2nc(NC(=O)c3cccc(N=[N+]=[N-])c3)nn2-c2ccccc2)c1 [Compound 29] | 0.783 | 2 µM |  |  | 

More lines, now with the values ahead:

half-life at 1 μM [1] [h] | EC50 (Parkin ligase) | IC50 (TOV-21G (ovarian)) [µM] | IC50 (A549 (lung)) [µM] | IC50 (HCT-116 (colon)) [µM] | Compound
 | 7 µM | 2.4 | 2.6 |  | Cc1ccccc1C(=O)Nc1nc(NC(=O)c2ccccc2C)n(-c2ccc(N3CCC(O)C3)cc2)n1 (stereo not drawn) [Compound 58]
 | 3 µM |  |  | 2.5 | O=C(Nc1nc(NC(=O)c2ccncc2)n(-c2ccc(C(F)(F)F)cc2)n1)c1ccncc1 [Compound 63]
1.4 | 7 µM |  |  |  | Cc1ccccc1C(=O)Nc1nc(-c2cccc(F)n2)nn1-c1ccccc1 [Compound 123]
1.22 | 4 µM |  |  |  | Cc1ccccc1C(=O)Nc1nc(-c2ccccc2O)nn1-c1ccc(OC(F)(F)F)cc1 [Compound 137]
 |  | > 2.5 |  | > 2.5 | Cc1ccccc1C(=O)Nc1nc(NC(=O)c2c(F)cc(F)cc2F)nn1-c1ccccc1 [Compound 149]
 |  | > 2.5 |  | > 2.5 | Cc1ccccc1C(=O)Nc1nc(NC(=O)c2ccc(F)cc2F)nn1-c1ccccc1 [Compound 150]
 |  |  |  | > 2.5 | Cc1ccccc1C(=O)Nc1nc(NC(C)(C)c2ccccc2)nn1-c1ccccc1 [Compound 152]
